Experimental findings from patent publication US11840528B2 (Hoffmann-La Roche Inc., priority 2018, dated 2023) are described below.

In experiment [1] the target is T1, h-GABA-A α5β3γ2 (Homo sapiens, UniProt P18507+P31644). Put plainly: [3H]flumazenil competition binding assay, membranes of HEK293 cells expressing GABAA receptors. Particulars: displacement of [3H]-Flumazenil 0.5 nM, HEK293 cells expressing human receptors, mean of two determinations; Table 1. Put shortly:
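Membranes from HEK293 cells transiently expressing human α5β3γ2 GABAA receptors, in Krebs-tris buffer pH 7.5, competed against [3H]flumazenil for 1 hour at 4° C to equilibrium. Bound radioactivity collected on GF/C filters and counted by liquid scintillation; Ki values are means of two determinations.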

For experiment [2], the target named is T1, h-GABA-A α5β3γ2. Put plainly: Two-electrode voltage clamp electrophysiology in Xenopus laevis oocytes expressing GABAA receptors, modulation of GABA EC20 current. The class given is cell-based. More on the design: host or cells: Xenopus laevis oocytes micro-injected with RNA transcripts of the subunits. Particulars: Table 1; for Efficacy (GABA) %: % modulation of GABA EC20 = 100*(Fold increase-1); for Fold increase h-GABA-A α5β3γ2 oocyte: test compound at approx. 30 fold its Ki, GABA at EC20. Put shortly: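 Human α5β3γ2 GABAA receptors were expressed in Xenopus oocytes by RNA injection, with γ2 RNA 5–10-fold higher, and recorded 3–5 days later by two-electrode voltage clamp at −80 mV at room temperature. The test compound, at about 30× its Ki, was co-applied during a second GABA EC20 pulse. Efficacy is the extremum of the point-by-point ratio to the first response, expressed as 100*(Fold increase−1).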

At h-GABA-A α5β3γ2 [1], `Cc1ccc(-c2noc(C)c2Cn2ncc(-c3ccc4ncc(C)n4c3)cc2=O)cn1` [Example 218, 2-((5-methyl-3-(6-methylpyridin-3-yl)isoxazol-4-yl)methyl)-5-(3-methylimidazo[1,2-a]pyridin-6-yl)pyridazin-3(2H)-one] gave a Ki of 19.8 nM. On h-GABA-A α5β3γ2 [2], the “Efficacy (GABA) %” value worked out at 84% and the “Fold increase h-GABA-A α5β3γ2 oocyte” value is listed as 1.84.
The compound `Cc1onc(-c2ccc(Cl)nc2)c1Cn1ncc(N2C[C@@H](C)O[C@@H](C)C2)cc1=O` [Example 219, 2-((3-(6-chloropyridin-3-yl)-5-methylisoxazol-4-yl)methyl)-5-((2RS,6SR)-2,6-dimethylmorpholino)pyridazin-3(2H)-one] came in with an inhibition constant (Ki) at h-GABA-A α5β3γ2 [1] of 2.6 nM. On h-GABA-A α5β3γ2 [2], the “Efficacy (GABA) %” value worked out at 247% and the “Fold increase h-GABA-A α5β3γ2 oocyte” value is 3.47.
On h-GABA-A α5β3γ2 [1], `CCOC1CN(c2cnn(Cc3c(-c4ccc(Cl)nc4)noc3C)c(=O)c2)C1` [Example 220, 2-((3-(6-chloropyridin-3-yl)-5-methyl-1,2-oxazol-4-yl)methyl)-5-(3-ethoxyazetidin-1-yl)pyridazin-3-one] came in with a Ki of 25.3 nM. For the same compound, at h-GABA-A α5β3γ2 [2], the “Efficacy (GABA) %” value was found to be 118% and the “Fold increase h-GABA-A α5β3γ2 oocyte” value stood at 2.18.
Turning to `CCn1cc(-c2cnn(Cc3c(-c4ccc(Cl)nc4)noc3C)c(=O)c2)cn1` [Example 221, 2-((3-(6-chloropyridin-3-yl)-5-methylisoxazol-4-yl)methyl)-5-(1-ethyl-1H-pyrazol-4-yl)pyridazin-3(2H)-one], the inhibition constant Ki on h-GABA-A α5β3γ2 [1] was 31.2 nM. Further, at h-GABA-A α5β3γ2 [2], the “Efficacy (GABA) %” value was found to be 99% and the “Fold increase h-GABA-A α5β3γ2 oocyte” value is 1.99.
Take `Cc1onc(-c2ccc(Cl)nc2)c1Cn1ncc(-c2cnn(C3CC3)c2)cc1=O` [Example 222, 2-((3-(6-chloropyridin-3-yl)-5-methylisoxazol-4-yl)methyl)-5-(1-cyclopropyl-1H-pyrazol-4-yl)pyridazin-3(2H)-one]: on h-GABA-A α5β3γ2 [1], the inhibition constant (Ki) was determined as 31.2 nM. On h-GABA-A α5β3γ2 [2], the “Efficacy (GABA) %” value came to 82% and the “Fold increase h-GABA-A α5β3γ2 oocyte” value was 1.82.
The corresponding values for `Cc1onc(-c2ccc(Cl)nc2)c1Cn1ncc(N2CCN3C(=O)CCC3C2)cc1=O` (stereo not drawn) [Example 223, 2-(1-((3-(6-chloropyridin-3-yl)-5-methylisoxazol-4-yl)methyl)-6-oxo-1,6-dihydropyridazin-4-yl)hexahydropyrrolo[1,2-a]pyrazin-6(2H)-one] are 27.6 nM, 215% and 3.15.
For `Cc1onc(-c2ccc(Cl)nc2)c1Cn1ncc(N2CC(OC3CC3)C2)cc1=O` [Example 224, 2-((3-(6-chloropyridin-3-yl)-5-methylisoxazol-4-yl)methyl)-5-(3-cyclopropoxyazetidin-1-yl)pyridazin-3(2H)-one], the affinity on h-GABA-A α5β3γ2 [1] corresponds to a Ki of 12.8 nM. For the same compound, on h-GABA-A α5β3γ2 [2], the “Efficacy (GABA) %” value came out at 124% and the “Fold increase h-GABA-A α5β3γ2 oocyte” value is listed as 2.24.
Consider `Cc1ccc(-c2noc(C)c2Cn2ncc(N3CCC4(CCOCC4)CC3)cc2=O)cn1` [Example 226, 2-((5-methyl-3-(6-methylpyridin-3-yl)isoxazol-4-yl)methyl)-5-(3-oxa-9-azaspiro[5.5]undecan-9-yl)pyridazin-3(2H)-one], for which affinity on h-GABA-A α5β3γ2 [1] was put at a Ki of 13 nM. In addition, at h-GABA-A α5β3γ2 [2], the “Efficacy (GABA) %” value worked out at 95% and the “Fold increase h-GABA-A α5β3γ2 oocyte” value was determined as 1.95.
As to `Cc1onc(-c2ccc(Cl)nc2)c1Cn1ncc(N2CCO[C@@H](C)C2)cc1=O` [Example 227, (S)-2-((3-(6-chloropyridin-3-yl)-5-methylisoxazol-4-yl)methyl)-5-(2-methylmorpholino)pyridazin-3(2H)-one], the inhibitory constant (Ki) at h-GABA-A α5β3γ2 [1] was determined as 4.4 nM. Moreover, on h-GABA-A α5β3γ2 [2], the “Efficacy (GABA) %” value was found to be 149% and the “Fold increase h-GABA-A α5β3γ2 oocyte” value was 2.49.
In the case of `COc1cc(-c2cnn(Cc3c(-c4ncc(C(F)(F)F)cn4)noc3C)c(=O)c2)ccn1` [Example 228, 5-(2-methoxypyridin-4-yl)-2-((5-methyl-3-(5-(trifluoromethyl)pyrimidin-2-yl)isoxazol-4-yl)methyl)pyridazin-3(2H)-one], the affinity at h-GABA-A α5β3γ2 [1] corresponds to a Ki of 3.8 nM. On h-GABA-A α5β3γ2 [2], the “Efficacy (GABA) %” value came to 41% and the “Fold increase h-GABA-A α5β3γ2 oocyte” value is given as 1.41.
